How the values were obtained:
Details in all cases: in vivo; call rule not given here
[1] = Drug uptake in abdomen of C57BL/6J mouse implanted with mouse B16F0 cells at 3.7 MBq, iv measured at 1 hr post injection by scintigraphic imaging analysis; assay type: ADME, organism-based
[2] = Drug uptake in tumor of C57BL/6J mouse implanted with mouse B16F0 cells at 3.7 MBq, iv measured at 24 hrs post injection by gamma counting analysis; assay type: ADME, organism-based, Neoplasm
[3] = Drug uptake in liver of C57BL/6J mouse implanted with mouse B16F0 cells at 3.7 MBq, iv measured at 72 hrs post injection by gamma counting analysis; assay type: ADME, organism-based
[4] = Drug uptake in kidney of C57BL/6J mouse implanted with mouse B16F0 cells at 3.7 MBq, iv measured at 1 hr post injection by gamma counting analysis; assay type: ADME, organism-based
[5] = Drug uptake in kidney of C57BL/6J mouse implanted with mouse B16F0 cells at 3.7 MBq, iv measured at 3 hrs post injection by gamma counting analysis; assay type: ADME, organism-based
[6] = Drug uptake in stomach of C57BL/6J mouse implanted with mouse B16F0 cells at 3.7 MBq, iv measured at 1 hr post injection by gamma counting analysis; assay type: ADME, organism-based
[7] = Drug uptake in stomach of C57BL/6J mouse implanted with mouse B16F0 cells at 3.7 MBq, iv measured at 3 hrs post injection by gamma counting analysis; assay type: ADME, organism-based
[8] = Drug uptake in stomach of C57BL/6J mouse implanted with mouse B16F0 cells at 3.7 MBq, iv measured at 6 hrs post injection by gamma counting analysis; assay type: ADME, organism-based
[9] = Drug uptake in intestine of C57BL/6J mouse implanted with mouse B16F0 cells at 3.7 MBq, iv measured at 3 hrs post injection by gamma counting analysis; assay type: ADME, organism-based
[10] = Drug uptake in intestine of C57BL/6J mouse implanted with mouse B16F0 cells at 3.7 MBq, iv measured at 6 hrs post injection by gamma counting analysis; assay type: ADME, organism-based
[11] = Drug uptake in intestine of C57BL/6J mouse implanted with mouse B16F0 cells at 3.7 MBq, iv measured at 72 hrs post injection by gamma counting analysis; assay type: ADME, organism-based
[12] = Drug uptake in thyroid/submaxillary glands of C57BL/6J mouse implanted with mouse B16F0 cells at 3.7 MBq, iv measured at 72 hrs post injection by gamma counting analysis; assay type: ADME, organism-based, Submaxillary gland/Thyroid
[13] = Drug uptake in eyes of C57BL/6J mouse implanted with mouse B16F0 cells at 3.7 MBq, iv measured at 1 hr post injection by gamma counting analysis; assay type: ADME, organism-based, Eye
[14] = Drug uptake in eyes of C57BL/6J mouse implanted with mouse B16F0 cells at 3.7 MBq, iv measured at 6 hrs post injection by gamma counting analysis; assay type: ADME, organism-based, Eye
[15] = Drug uptake in eyes of C57BL/6J mouse implanted with mouse B16F0 cells at 3.7 MBq, iv measured at 72 hrs post injection by gamma counting analysis; assay type: ADME, organism-based, Eye
[16] = Drug uptake in blood of C57BL/6J mouse implanted with mouse B16F0 cells at 3.7 MBq, iv measured at 24 hrs post injection by gamma counting analysis; assay type: ADME, organism-based
[17] = Drug uptake in blood of C57BL/6J mouse implanted with mouse B16F0 cells at 3.7 MBq, iv measured at 72 hrs post injection by gamma counting analysis; assay type: ADME, organism-based
[18] = Drug uptake in muscles of C57BL/6J mouse implanted with mouse B16F0 cells at 3.7 MBq, iv measured at 1 hr post injection by gamma counting analysis; assay type: ADME, organism-based, Muscle tissue
[19] = Drug uptake in muscles of C57BL/6J mouse implanted with mouse B16F0 cells at 3.7 MBq, iv measured at 3 hrs post injection by gamma counting analysis; assay type: ADME, organism-based, Muscle tissue
[20] = system: Mus musculus; assay: Toxicity in C57BL/6J mouse assessed as rough coat at 3.7 MBq, iv measured up to 72 hrs post injection; assay type: organism-based
[21] = Ratio of drug uptake in tumor to muscle in C57BL/6J mouse implanted with mouse B16F0 cells at 3.7 MBq, iv measured at 3 hrs post injection; assay type: ADME, organism-based
[22] = Ratio of drug uptake in tumor to muscle in C57BL/6J mouse implanted with mouse B16F0 cells at 3.7 MBq, iv measured at 6 hrs post injection; assay type: ADME, organism-based
[23] = Drug level in urine of C57BL/6J mouse implanted with mouse B16F0 cells treated with [125I]IUdR-SS-MTP at 3.7 MBq, iv measured at 15 to 60 mins post injection by RP-HPLC analysis; assay type: ADME, organism-based
[24] = Drug level in blood of C57BL/6J mouse implanted with mouse B16F0 cells treated with [125I]IUdR-SS-MTP at 3.7 MBq, iv measured at 15 to 60 mins post injection by RP-HPLC analysis; assay type: ADME, organism-based
[25] = Drug level in tumor of C57BL/6J mouse implanted with mouse B16F0 cells treated with [125I]IUdR-SS-MTP at 3.7 MBq, iv measured at 15 to 60 mins post injection by RP-HPLC analysis; assay type: ADME, organism-based, Neoplasm

| SMILES | Drug uptake [1] | Drug uptake [2] | Drug uptake [3] | Drug uptake [4] | Drug uptake [5] | Drug uptake [6] | Drug uptake [7] | Drug uptake [8] | Drug uptake [9] | Drug uptake [10] | Drug uptake [11] | Drug uptake [12] | Drug uptake [13] | Drug uptake [14] | Drug uptake [15] | Drug uptake [16] | Drug uptake [17] | Drug uptake [18] | Drug uptake [19] | Activity [20] | further results |
| --- | --- | --- | --- | --- | --- | --- | --- | --- | --- | --- | --- | --- | --- | --- | --- | --- | --- | --- | --- | --- | --- |
| CCN(CC)CCNC(=O)c1cnc2cc(NC(=O)COc3ccc(SSCCOC(=O)O[C@H]4C[C@H](n5cc([125I])c(=O)[nH]c5=O)O[C@@H]4CO)cc3)ccc2n1 | Active | 0.72 % ID/g | 0.11 % ID/g | 1.99 % ID/g | 1.89 % ID/g | 19.21 % ID/g | 27.07 % ID/g | 6.67 % ID/g | 2.88 % ID/g | 1.24 % ID/g | 0.27 % ID/g | 11.36 % ID/g | 0.78 % ID/g | 0.28 % ID/g | 0.08 % ID/g | 0.13 % ID/g | 1.94 % ID/g | 0.47 % ID/g | 0.51 % ID/g | Non-Toxic | Ratio [21]: 5.59; Ratio [22]: 12.3 |
| O=c1[nH]c(=O)n([C@H]2C[C@H](O)[C@@H](CO)O2)cc1[125I] | Active | 0.46 % ID/g | 0.04 % ID/g | 2.57 % ID/g | 1.08 % ID/g | 18.09 % ID/g | 12.33 % ID/g | 4.19 % ID/g | 1.27 % ID/g | 0.77 % ID/g | 0.24 % ID/g | 4.17 % ID/g | 1.02 % ID/g | 0.24 % ID/g | 0.03 % ID/g | 0.07 % ID/g | 0.02 % ID/g | 1.13 % ID/g | 1.06 % ID/g | Non-Toxic | Ratio [21]: 3.75; Ratio [22]: 10.66; Drug metabolism [23]: Metabolite_Detected; Drug metabolism [24]: Metabolite_Detected; Drug metabolism [25]: Metabolite_Detected |

From ChEMBL document CHEMBL3856199, “Melanoma-targeted delivery system (part 2): Synthesis, radioiodination and biological evaluation in B16F0 bearing mice” (Eur J Med Chem, 2016)
